Assay results: PubChem BioAssay AID330 (DTP/NCI, 2004)
Values joined by “and” are separate entries in the source; they are usually repeats but may differ in a detail not shown here. Equal values may be shown once. Inconclusive results and toxic doses are left out. Rule for the calls: active = survival T/C of 150% or more; inactive = T/C below 125% in these data.

Tested on: P388 leukemia ip, CD2F1 mice, survival T/C
Experiment: NCI In Vivo Anticancer Drug Screen. Data for tumor model P388 Leukemia (intraperitoneal) in CD2F1 (CDF1) mice
Details: endpoint: median survival time, higher = longer survival
Summary of the method: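 Mice carrying the transplanted tumor received test compound or vehicle. Survival was recorded in each group, and the value is the treated-group measurement divided by that of the vehicle-treated control group.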

[1] = dose: 12.5 mg/kg/injection, schedule: Q01DX005 (ip), vehicle: Klucel (hydroxypropylcellulose) (HPC)
[2] = dose: 25.0 mg/kg/injection, schedule: Q01DX005 (ip), vehicle: Klucel (hydroxypropylcellulose) (HPC)
[3] = dose: 50.0 mg/kg/injection, schedule: Q01DX005 (ip), vehicle: Klucel (hydroxypropylcellulose) (HPC)
[4] = dose: 60.0 mg/kg/injection, schedule: Q01DX005 (ip), vehicle: saline with Tween-80
[5] = dose: 120.0 mg/kg/injection, schedule: Q01DX005 (ip), vehicle: saline with Tween-80
[6] = dose: 240.0 mg/kg/injection, schedule: Q01DX005 (ip), vehicle: saline with Tween-80
[7] = dose: 50.0 mg/kg/injection, schedule: Q01DX009 (ip), vehicle: saline with Tween-80
[8] = dose: 100.0 mg/kg/injection, schedule: Q01DX009 (ip), vehicle: saline with Tween-80
[9] = dose: 100.0 mg/kg/injection, schedule: Q01DX005 (ip), vehicle: Klucel (hydroxypropylcellulose) (HPC)

Measured: T/C

C#CCNCCCn1c(=O)nc2n(-c3ccccc3)c3ccccc3nc-2c1=O
inactive: dose: 25.0 mg/kg/injection, schedule: Q04DX003 (ip), vehicle: Klucel (hydroxypropylcellulose) (HPC) 110 % of control | dose: 50.0 mg/kg/injection, schedule: Q04DX003 (ip), vehicle: Klucel (hydroxypropylcellulose) (HPC) 106 % of control | dose: 100.0 mg/kg/injection, schedule: Q04DX003 (ip), vehicle: Klucel (hydroxypropylcellulose) (HPC) 100 % of control and 107 % of control

CCOC(=O)C(CSC(c1ccccc1)(c1ccccc1)c1ccccc1)NC(=O)c1csc(CCNC(=O)c2ccccc2)n1 (centres undefined)
inactive: dose: 4.0 mg/kg/injection, schedule: Q01DX009 (ip), vehicle: other 100 % of control | dose: 8.0 mg/kg/injection, schedule: Q01DX009 (ip), vehicle: other 99 % of control | dose: 16.0 mg/kg/injection, schedule: Q01DX009 (ip), vehicle: other 91 % of control | dose: 32.0 mg/kg/injection, schedule: Q01DX009 (ip), vehicle: other 89 % of control | dose: 62.5 mg/kg/injection, schedule: Q01DX009 (ip), vehicle: other 113 % of control | dose: 64.0 mg/kg/injection, schedule: Q01DX009 (ip), vehicle: other 89 % of control | dose: 125.0 mg/kg/injection, schedule: Q01DX009 (ip), vehicle: other 108 % of control | dose: 250.0 mg/kg/injection, schedule: Q01DX009 (ip), vehicle: other 108 % of control

COc1ccc2c(c1OC)C[C@@H]1c3c(cc4c(c3-2)OCO4)CCN1C
inactive: dose: 6.25 mg/kg/injection, schedule: Q01DX005 (ip), vehicle: Klucel (hydroxypropylcellulose) (HPC) 117 % of control | [1] 105 % of control | [2] 96 % of control | [3] 92 % of control

CN1c2ccccc2Sc2c1n[nH]c2-c1ccccc1
inactive: dose: 60.0 mg/kg/injection, schedule: Q01DX005 (ip), vehicle: Klucel (hydroxypropylcellulose) (HPC) 104 % of control | dose: 120.0 mg/kg/injection, schedule: Q01DX005 (ip), vehicle: Klucel (hydroxypropylcellulose) (HPC) 111 % of control | dose: 240.0 mg/kg/injection, schedule: Q01DX005 (ip), vehicle: Klucel (hydroxypropylcellulose) (HPC) 119 % of control

CCON1C(=O)C(C)c2ccccc21 (centres undefined)
inactive: [4] 98 % of control | [5] 102 % of control | [6] 102 % of control

COc1ccc(C(CC(=O)O)C(N)C(=O)O)cc1 (centres undefined)
inactive: dose: 50.0 mg/kg/injection, schedule: Q01DX009 (ip), vehicle: suspension in saline 88 % of control | dose: 100.0 mg/kg/injection, schedule: Q01DX009 (ip), vehicle: suspension in saline 87 % of control | dose: 200.0 mg/kg/injection, schedule: Q01DX009 (ip), vehicle: suspension in saline 95 % of control

COC(=O)c1ccc2cc1Nc1c(C#N)cnc(=S)n1-2
inactive: [7] 114 % of control | [8] 112 % of control | dose: 200.0 mg/kg/injection, schedule: Q01DX009 (ip), vehicle: saline with Tween-80 90 % of control

C[N+]1=C(c2ccc(Br)cc2)OCC1(C)C
inactive: dose: 25.0 mg/kg/injection, schedule: Q01DX009 (ip), vehicle: other 104 % of control | dose: 50.0 mg/kg/injection, schedule: Q01DX009 (ip), vehicle: other 101 % of control | dose: 100.0 mg/kg/injection, schedule: Q01DX009 (ip), vehicle: other 97 % of control | dose: 200.0 mg/kg/injection, schedule: Q01DX009 (ip), vehicle: other 101 % of control | dose: 400.0 mg/kg/injection, schedule: Q01DX009 (ip), vehicle: other 101 % of control

NC(CCC(N)C(=O)c1ccccc1)C(=O)c1ccccc1 (centres undefined)
inactive: [4] 98 % of control | [5] 101 % of control | [6] 93 % of control

OC(CN(Cc1nc2ccccc2[nH]1)Cc1nc2ccccc2[nH]1)CN(Cc1nc2ccccc2[nH]1)Cc1nc2ccccc2[nH]1
inactive: [4] 115 % of control | [5] 115 % of control

CC(=O)C1C(=O)C(=O)N(c2ccc(C)cc2C)C1=O (centres undefined)
inactive: dose: 50.0 mg/kg/injection, schedule: Q01DX009 (ip), vehicle: Klucel (hydroxypropylcellulose) (HPC) 105 % of control | dose: 100.0 mg/kg/injection, schedule: Q01DX009 (ip), vehicle: Klucel (hydroxypropylcellulose) (HPC) 114 % of control | dose: 200.0 mg/kg/injection, schedule: Q01DX009 (ip), vehicle: Klucel (hydroxypropylcellulose) (HPC) 110 % of control

O=C(N=C(Oc1ccccc1)Oc1ccccc1)N=C(Oc1ccccc1)Oc1ccccc1
inactive: [3] 94 % of control | [9] 88 % of control | dose: 200.0 mg/kg/injection, schedule: Q01DX005 (ip), vehicle: Klucel (hydroxypropylcellulose) (HPC) 91 % of control

Cn1c(=O)c2[nH]c(Cl)nc2n(CCCl)c1=O
inactive: dose: 12.5 mg/kg/injection, schedule: Q01DX009 (ip), vehicle: saline with Tween-80 100 % of control and 88 % of control | dose: 25.0 mg/kg/injection, schedule: Q01DX009 (ip), vehicle: saline with Tween-80 89 % of control and 98 % of control | [7] 102 % of control and 95 % of control | [8] 104 % of control and 109 % of control

CC(=O)O[C@@H]1C[C@@]2(C)C(CC(=O)[C@@H](C)[C@@H]2CC(=O)c2ccoc2)[C@@H](CO)[C@@H]1O (some centres undefined)
inactive: [1] 103 % of control | [2] 100 % of control | [3] 109 % of control | [9] 106 % of control | dose: 100.0 mg/kg/injection, schedule: Q01DX005 (ip), vehicle: Klucel + Tween-80 107 % of control | dose: 200.0 mg/kg/injection, schedule: Q01DX005 (ip), vehicle: Klucel + Tween-80 107 % of control | dose: 400.0 mg/kg/injection, schedule: Q01DX005 (ip), vehicle: Klucel + Tween-80 101 % of control
